In patent US20090062253A1, “HETEROCYCLODIAZEPINE CANNABINOID RECEPTOR MODULATORS FOR TREATMENT OF DISEASE” (KALYPSYS, INC., priority 2007, published 2009):

Experiments:
[1] = target: T1, Human CB2 (Homo sapiens, UniProt P34972); assay: Human CB2 Radioligand Binding Assay; conditions: membranes from stably transfected CHO CB2 cells; competition with [3H] CP-55,940; read-out: CB2 Ligand Binding Asssay
T1 construct: expressed in transfected cells; membrane preparation
Procedure: (§1) This receptor binding filtration assay measures the receptor-ligand interactions of compounds by measuring ability to compete with a radiolabeled control ligand. Reactions were performed in 96 deep-well plate (Costar 3961) with a final volume of 600 ul. Compounds were added to each well either in single point (10 uM final) or dose-response. Compounds were delivered in DMSO or further diluted in incubation buffer to a final assay DMSO concentration of 1%. Incubation buffer (50 mM Tris-HCl pH 7.4, 2.5 mM EGTA, 5 mM MgCl2, 5.0 mg/ml fatty acid free BSA) was added to each well. Following buffer addition, [^3H] CP-55,940 was added. Tritiated CP-55,940 (Perkin Elmer) was used at the Kd determined from prior saturation binding experiments conducted on each lot of membranes. Membrane preparations from stably transfected CHO CB2 cells were added and the reaction was incubated for 90 minutes at 30° C. Unifilter GF/C filtration plates (Perkin Elmer) were pre-wet with 0.05% polyethylenimine. Samples were transferred to Unifilter plates and separation of unbound radioligand was achieved using a vacuum manifold (Millipore). Following thorough washing with 5 ml/well ice-cold wash buffer (50 mM Tris-HCl pH 7.4, 2.5 mM EGTA, 5 mM MgCl2, 0.5 mg/ml fatty acid free BSA), filterplates were dried completely. Betaplate Scint Scintillation cocktail (25 ul, Perkin Elmer) was applied and plates were read using Microbeta Trilux (Wallac). Data analysis was performed in Spotfire. Activity of the positive control (100 nM CP-55,940) was set as 100% efficacy.
Stable recombinant Human CB2-CHO cell membranes were prepared as follows: Chinese Hamster Ovarian (CHO) cells stably expressing human cannabinoid receptor type 2 were grown to ˜90% confluence in 15×100 mm culture dishes under puromycin selection (5 ug/ml) Cells were harvested from culture flasks using a cell scraper, were washed once with cold phosphate-buffered saline (calcium and magnesium free) and pelleted by centrifugation at 400 g for 5 min at 4° C. Cell pellet was washed once with cold phosphate-buffered saline and centrifuged again at 400×g for 5 min at 4° C. The pellet was suspended in ice-cold lysis buffer (10 mM Tris-HCl, 0.1 mM EDTA, containing […], pH 7.5) and homogenized in a chilled 7 ml glass dounce homogenizer using 50 strokes. The homogenate was centrifuged at 400 g for 15 min at 4° C. The cloudy supernatant was collected and centrifuged at 41000 g for 30 min at 4° C. The resulting pellet was washed with ice-cold sucrose-free lysis buffer and centrifuged again at 41000 g for 30 min at 4° C. The membrane pellet was suspended in sucrose-free storage buffer (10 mm Tris-HCl, 0.1 mM EDTA, pH 7.5) to a concentration of 2-3 mg protein/ml. Aliquots were flash frozen in liquid nitrogen and stored at −80° C. Concentration was determined using Dc protein assay kit (Bio-Rad).

[2] = target: T2, human cannabinoid receptor type 1 (Homo sapiens, UniProt P21554); assay: Human CB1 Radioligand Binding Assay (basis of selectivity CB2 vs. CB1)
T2 construct: purchased Perkin Elmer RBHCB1M; host or cells: HEK 293 EBNA cells
Procedure: as §1
The CB1 binding assay was performed as described above except that HEK 293 EBNA cells expressing human cannabinoid receptor type 1 (Perkin Elmer cat #RBHCB1M) were used according the manufacturer's instructions. The incubation buffer was composed of 50 mM Tris-HCl pH 7.4, 2.5 mM EDTA, 5 mM MgCl2, 5.0 mg/ml fatty acid free BSA and the wash buffer was composed of 50 mM Tris-HCl pH 7.4, 2.5 mM EDTA, 5 mM MgCl2, 0.5 mg/ml fatty acid free BSA. Activity of the positive control (100 nM CP-55,940) was set as 100% efficacy.

T2 sequence (P21554 whole entry): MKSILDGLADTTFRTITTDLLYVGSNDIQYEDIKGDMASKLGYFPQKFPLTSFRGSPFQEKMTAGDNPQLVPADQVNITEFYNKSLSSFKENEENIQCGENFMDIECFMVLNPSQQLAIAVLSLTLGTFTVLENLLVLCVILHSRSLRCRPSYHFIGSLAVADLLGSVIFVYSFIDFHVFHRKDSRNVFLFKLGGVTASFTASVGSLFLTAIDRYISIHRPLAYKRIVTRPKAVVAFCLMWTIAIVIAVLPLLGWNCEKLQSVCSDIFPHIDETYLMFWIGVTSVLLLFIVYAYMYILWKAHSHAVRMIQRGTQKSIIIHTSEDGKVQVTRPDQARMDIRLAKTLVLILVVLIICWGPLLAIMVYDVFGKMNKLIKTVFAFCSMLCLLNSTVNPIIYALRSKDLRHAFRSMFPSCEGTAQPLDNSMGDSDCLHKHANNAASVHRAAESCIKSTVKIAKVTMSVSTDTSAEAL
T1 sequence (P34972 whole entry): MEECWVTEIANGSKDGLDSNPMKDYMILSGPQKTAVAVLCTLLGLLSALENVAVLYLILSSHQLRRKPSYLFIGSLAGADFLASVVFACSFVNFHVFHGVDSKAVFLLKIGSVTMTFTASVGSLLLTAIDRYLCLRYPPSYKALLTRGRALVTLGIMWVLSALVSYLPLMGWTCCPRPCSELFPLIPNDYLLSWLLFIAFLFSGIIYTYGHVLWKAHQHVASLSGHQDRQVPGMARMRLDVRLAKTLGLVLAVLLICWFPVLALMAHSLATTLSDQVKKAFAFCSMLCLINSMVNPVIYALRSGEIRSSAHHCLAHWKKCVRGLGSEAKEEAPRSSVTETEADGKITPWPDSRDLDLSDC

Structure (SMILES)	IC50 (radioligand displacement) [1]	Selectivity, CB2 vs. CB1 [2]
O=C(Nc1ccc(F)cc1F)C1CCCn2cccc2C1c1ccccc1 (single isomer, unassigned) [Example 106, (8,9-cis)-N-(2,4-Difluorophenyl)-9-phenyl-6,7,8,9-tetrahydro-5H-pyrrolo[1,2-a]azepine-8-carboxamide]	< 1 µM	+ (+ indicates > 10-fold)
CC(C)(C)c1ccc(C2c3cccn3CCCC2NC(=O)Nc2ccc(Cl)cc2)cc1 (mixture of isomers) [Example 115, 1-(9-(4-tert-Butylphenyl)-6,7,8,9-tetrahydro-5H-pyrrolo[1,2-a]azepin-8-yl)-3-(4-chlorophenyl)urea]	> 1 µM	+ (+ indicates > 10-fold)
CC(C)(C)c1ccc(C2c3cccn3CCCC2NC(=O)Nc2ccc(Cl)c(Cl)c2)cc1 (single isomer, unassigned) [Example 121, 1-(9-(4-tert-Butylphenyl)-6,7,8,9-tetrahydro-5H-pyrrolo[1,2-a]azepin-8-yl)-3-(3,4-dichlorophenyl)urea]	> 1 µM	− (− indicates < 10-fold)
CC(C)(C)c1ccc(C2c3ccnn3CCCN2C(=O)Nc2ccc(Cl)cc2Cl)cc1 (stereo not drawn) [Example 25, 4-(4-tert-Butylphenyl)-N-(2,4-dichlorophenyl)-7,8-dihydro-4H-pyrazolo [1,5-a][1,4]diazepine-5(6H)-carboxamide]	< 1 µM	+ (+ indicates > 10-fold)
CC(C)(C)c1ccc(C2=C(C(=O)Nc3ccc(OC(F)(F)F)cc3)CCn3cccc32)cc1 [Example 58, 8-(4-tert-Butylphenyl)-N-(4-(trifluoromethoxy)phenyl)-5,6-dihydroindolizine-7-carboxamide]	> 1 µM	− (− indicates < 10-fold)
CC(C)(C)c1ccc(C2c3nccn3CCCN2C(=O)c2ccc(Cl)cc2Cl)cc1 (stereo not drawn) [Example 48, (9-(4-tert-Butylphenyl)-6,7-dihydro-5H-imidazo[1,2-a][1,4]diazepin-8(9H)-yl)(2,4-dichlorophenyl)methanone]	> 1 µM	− (− indicates < 10-fold)
CC(C)(C)c1ccc(C2[C@@H]3CCCN3CCCN2C(=O)Nc2ccc(Cl)cc2)cc1 (stereo partly drawn) [Example 131, (9aS)-1-(4-tert-Butylphenyl)-N-(4-chlorophenyl)hexahydro-1H-pyrrolo[1,2-a][1,4]diazepine-2(3H)-carboxamide]	< 1 µM	+ (+ indicates > 10-fold)
O=C(Nc1ccc(Cl)cc1Cl)N1CCCn2cccc2C1Cc1ccccc1 (stereo not drawn) [Example 21, 1-Benzyl-N-(2,4-dichlorophenyl)-4,5-dihydro-1H-pyrrolo[1,2-a][1,4]diazepine-2(3H)-carboxamide]	> 1 µM	− (− indicates < 10-fold)
CC(C)(C)c1ccc(C2=C(C(=O)Nc3ccc(F)cc3F)CCn3cccc32)cc1 [Example 56, 8-(4-tert-Butylphenyl)-N-(2,4-difluorophenyl)-5,6-dihydroindolizine-7-carboxamide]	> 1 µM	− (− indicates < 10-fold)

Continued, values first:

IC50 (radioligand displacement) [1]	Selectivity, CB2 vs. CB1 [2]	Structure (SMILES)
< 1 µM	− (− indicates < 10-fold)	O=C(Nc1ccc(Cl)cc1)[C@H]1CCCn2cccc2[C@H]1c1ccccc1 (relative stereo) [Example 110, (8,9-cis)-N-(4-Chlorophenyl)-9-phenyl-6,7,8,9-tetrahydro-5H-pyrrolo[1,2-a]azepine-8-carboxamide]
> 1 µM	− (− indicates < 10-fold)	CC(=O)N1CCCn2cccc2C1c1ccc(C(C)(C)C)cc1 (stereo not drawn) [Example 46, 1-(1-(4-tert-Butylphenyl)-4,5-dihydro-1H-pyrrolo[1,2-a][1,4]diazepin-2(3H)-yl)ethanone]
< 1 µM	− (− indicates < 10-fold)	CC(C)(C)c1ccc(C2=C(C(=O)Nc3ccc(F)cc3F)CCCn3cccc32)cc1 [Example 62, (E)-9-(4-tert-Butylphenyl)-N-(2,4-difluorophenyl)-6,7-dihydro-5H-pyrrolo[1,2-a]azepine-8-carboxamide]
< 1 µM	− (− indicates < 10-fold)	CC(C)(C)c1ccc(C2c3cccn3CCCC2NC(=O)Nc2ccc(Cl)cc2Cl)cc1 (single isomer, unassigned) [Example 118, 1-(9-(4-tert-Butylphenyl)-6,7,8,9-tetrahydro-5H-pyrrolo[1,2-a]azepin-8-yl)-3-(2,4-dichlorophenyl)urea]
< 1 µM	+ (+ indicates > 10-fold)	CC(C)(C)c1ccc(CC2c3cccn3CCCN2C(=O)Nc2ccc(F)cc2F)cc1 (stereo not drawn) [Example 23, 1-(4-tert-Butylbenzyl)-N-(2,4-difluorophenyl)-4,5-dihydro-1H-pyrrolo[1,2-a][1,4]diazepine-2(3H)-carboxamide]
< 1 µM	+ (+ indicates > 10-fold)	CC(C)(C)c1ccc(C2c3cncn3CCCN2C(=O)Nc2ccc(F)cc2F)cc1 (stereo not drawn) [Example 37, 9-(4-tert-Butylphenyl)-N-(2,4-difluorophenyl)-6,7-dihydro-5H-imidazo[1,5-a][1,4]diazepine-8(9H)-carboxamide]
> 1 µM	− (− indicates < 10-fold)	Cc1cccc(C2c3cccn3CCCN2C(=O)Nc2ccc(Cl)cc2Cl)c1 (stereo not drawn) [Example 11, N-(2,4-Dichlorophenyl)-1-m-tolyl-4,5-dihydro-1H-pyrrolo[1,2-a][1,4]diazepine-2(3H)-carboxamide]
> 1 µM	− (− indicates < 10-fold)	O=C(Nc1ccc(Cl)cc1Cl)N1CCCn2cccc2C1c1ccccc1 (stereo not drawn) [Example 13, N-(2,4-Dichlorophenyl)-1-phenyl-4,5-dihydro-1H-pyrrolo[1,2-a][1,4]diazepine-2(3H)-carboxamide]
> 1 µM	− (− indicates < 10-fold)	CC(C)(C)c1ccc(CC2[C@@H]3CCCN3CCCN2C(=O)Nc2ccc(Cl)cc2)cc1 (mixture of isomers) [Example 125, (9aS)-1-(4-tert-Butylbenzyl)-N-(4-chlorophenyl)hexahydro-1H-pyrrolo[1,2-a][1,4]diazepine-2(3H)-carboxamide]
< 1 µM	− (− indicates < 10-fold)	CC(C)(C)c1ccc(C2c3nccn3CCCN2C(=O)c2ccc(F)cc2F)cc1 (stereo not drawn) [Example 47, (9-(4-tert-Butylphenyl)-6,7-dihydro-5H-imidazo[1,2-a][1,4]diazepin-8(9H)-yl)(2,4-difluorophenyl)methanone]
> 1 µM	− (− indicates < 10-fold)	O=C(Nc1ccc(F)cc1F)C1CCn2cccc2C1c1ccccc1 (mixture of isomers) [Example 100, N-(2,4-Difluorophenyl)-8-phenyl-5,6,7,8-tetrahydroindolizine-7-carboxamide]
> 1 µM	− (− indicates < 10-fold)	CC(C)(C)c1ccc(C2=C(C(=O)Nc3ccc(F)cc3F)CCCn3cncc32)cc1 [Example 78, ((E)-9-(4-tert-Butylphenyl)-N-(2,4-difluorophenyl)-6,7-dihydro-5H-imidazo[1,5-a]azepine-8-carboxamide]
